Tested on: Staphylococcus aureus
Assay: Microbial antiadhesion test on reconstructed epidermis
Format: cell-based
Protocol: Before bacterial adhesion, the reconstructed epidermis is placed in contact for 2 hours with the composition of Example 1 at 37° C. 1 ml of bacterial suspension of Staphylococcus aureus at a concentration of 10^7 microorganisms/ml in Tryptone salt is then added thereto. After incubation for 24 hours at 37° C., the bacterial suspension is emptied out and five rinsings are performed with 1 ml of sterile distilled water. The reconstructed epidermis detached from its support is then ground using a processor in 18 ml of Tryptone salt. […] The adherent and viable cells are then counted. […]
A mixture of bacteria/test product, in the same ratio as in the antiadhesion test, is brought into contact for 24 hours at 37° C. The microorganisms are counted by tenfold dilution in Tryptone salt and inoculation, using a scraper, of 100 μl on Trypticase soybean agar. The colonies are counted after incubation for 24 hours at 37° C.
The quantitative results correspond to a reduction in the decimal logarithm of the mean number of viable Staphylococcus aureus adherent on the reconstructed epidermis after treatment with the test composition or test molecules, relative to the decimal logarithm of the mean number of viable Staphylococcus aureus adherent on the reconstructed epidermis after treating with water under the same conditions. […]

SMILES: CC(C)CCCC(C)CCCC(C)CCCC(C)(O)C(O)CO (centres unmarked) [Pure phytanetriol, 3,7,11,15-tetramethyl-1,2,3-hexadecanetriol]
- Activity Antiadhesion, Quantitative results: reduction in the decimal logarithm of the mean number of viable Staphylococcus aureus adherent on the reconstructed epidermis relative to water (reconstructed epidermis pretreated 2 hours at 37° C., S. aureus 10^7 microorganisms/ml, incubation 24 hours at 37° C., relative to treatment with water, significant if difference greater than 0.5 log): −1.9 log
- Activity Antiadhesion, Qualitative results (term as a function of Log reduction of adhesion after 24 hours relative to the same test using water): Good (between 1.5 and 2 log reduction relative to water)

From patent US20050131077A1, “Preventing or reducing the adhesion of microorganisms with phytanetriol” (priority 2003, published 2005)
